Measured values taken from ChEMBL document CHEMBL3352629, “Hydroxamic acid based histone deacetylase inhibitors with confirmed activity against the malaria parasite” (Bioorg Med Chem Lett, 2015).
The source made the active and inactive calls. No cut-off for these calls is given here. Square brackets hold non-standard residues; d marks the D form. Peptide text beside a SMILES is read from it. * marks the point of attachment. Asu = N[C@@H](CCCCCC(=O)O)C(=O)O; pGlu = O=C1CC[C@@H](C(=O)O)N1; NHPh = c1ccc(N*)cc1; NHOH = ON*

What was measured:
Trypanosoma cruzi = experiment: Antiprotozoan activity against Trypanosoma cruzi Tulahuen C4 amastigotes; assay type: functional, organism-based
L6 = experiment: Cytotoxicity against rat L6 cells; assay type: ADME, cell-based
Plasmodium falciparum [1] = experiment: Antiprotozoan activity against Plasmodium falciparum NF54 IEF forms; assay type: functional, organism-based
Giardia intestinalis = experiment: Antiprotozoan activity against Giardia lamblia G1; assay type: functional, organism-based; settings: Giardia duodenalis
[2] = molecular target: T1, Protein deacetylase HDAC6 (Homo sapiens, UniProt Q9UBN7); experiment: Inhibition of human HDAC6 using RHKK(Ac) as substrate by fluorimetric analysis
T1 sequence (Q9UBN7 whole entry): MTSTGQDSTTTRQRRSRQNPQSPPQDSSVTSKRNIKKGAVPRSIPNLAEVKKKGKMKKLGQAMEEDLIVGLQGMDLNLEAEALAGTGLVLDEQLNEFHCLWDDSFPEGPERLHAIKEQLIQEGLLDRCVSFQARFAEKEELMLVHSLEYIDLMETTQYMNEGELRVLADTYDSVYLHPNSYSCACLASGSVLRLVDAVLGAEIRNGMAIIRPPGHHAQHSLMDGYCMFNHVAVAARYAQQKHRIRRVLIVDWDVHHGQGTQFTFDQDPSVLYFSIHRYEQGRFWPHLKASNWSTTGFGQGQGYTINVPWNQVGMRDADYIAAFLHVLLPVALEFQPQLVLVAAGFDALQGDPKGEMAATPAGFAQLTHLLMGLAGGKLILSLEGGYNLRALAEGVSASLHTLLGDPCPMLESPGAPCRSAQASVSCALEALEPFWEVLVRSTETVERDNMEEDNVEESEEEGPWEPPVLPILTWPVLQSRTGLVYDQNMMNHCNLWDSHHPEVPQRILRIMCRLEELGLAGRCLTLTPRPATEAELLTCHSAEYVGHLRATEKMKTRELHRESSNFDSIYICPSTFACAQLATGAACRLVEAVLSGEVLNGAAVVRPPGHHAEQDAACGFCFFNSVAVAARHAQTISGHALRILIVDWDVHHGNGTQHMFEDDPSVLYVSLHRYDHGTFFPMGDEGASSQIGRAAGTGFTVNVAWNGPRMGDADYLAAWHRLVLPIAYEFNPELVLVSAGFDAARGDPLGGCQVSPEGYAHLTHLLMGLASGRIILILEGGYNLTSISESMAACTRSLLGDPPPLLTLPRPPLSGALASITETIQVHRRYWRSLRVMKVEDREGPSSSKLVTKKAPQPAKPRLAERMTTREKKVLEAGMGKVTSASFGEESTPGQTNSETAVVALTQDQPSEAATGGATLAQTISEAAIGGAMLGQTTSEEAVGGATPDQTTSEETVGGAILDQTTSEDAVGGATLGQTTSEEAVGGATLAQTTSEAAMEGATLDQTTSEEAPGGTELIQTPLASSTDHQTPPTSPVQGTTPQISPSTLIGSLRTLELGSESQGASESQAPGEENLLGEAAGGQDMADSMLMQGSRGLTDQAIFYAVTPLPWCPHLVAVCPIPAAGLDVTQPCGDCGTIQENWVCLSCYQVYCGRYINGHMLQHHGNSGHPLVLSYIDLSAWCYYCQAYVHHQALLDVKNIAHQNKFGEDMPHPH

NCI-H460 = experiment: Cytotoxicity against human NCI-H460 cells; assay type: functional, cell-based
Histone deacetylase 2 = Histone deacetylase 2 (Homo sapiens, UniProt Q92769); experiment: Inhibition of human HDAC2 using RHKK(Ac) as substrate by fluorimetric analysis
Histone deacetylase 3 = Histone deacetylase 3 (Homo sapiens, UniProt O15379); experiment: Inhibition of human HDAC3 using RHKK(Ac) as substrate by fluorimetric analysis
Histone deacetylase 8 = molecular target: T2, Histone deacetylase 8 (Homo sapiens, UniProt Q9BY41); experiment: Inhibition of human HDAC8 using RHK(Ac)K(Ac) as substrate by fluorimetric analysis
T2 sequence (Q9BY41 whole entry): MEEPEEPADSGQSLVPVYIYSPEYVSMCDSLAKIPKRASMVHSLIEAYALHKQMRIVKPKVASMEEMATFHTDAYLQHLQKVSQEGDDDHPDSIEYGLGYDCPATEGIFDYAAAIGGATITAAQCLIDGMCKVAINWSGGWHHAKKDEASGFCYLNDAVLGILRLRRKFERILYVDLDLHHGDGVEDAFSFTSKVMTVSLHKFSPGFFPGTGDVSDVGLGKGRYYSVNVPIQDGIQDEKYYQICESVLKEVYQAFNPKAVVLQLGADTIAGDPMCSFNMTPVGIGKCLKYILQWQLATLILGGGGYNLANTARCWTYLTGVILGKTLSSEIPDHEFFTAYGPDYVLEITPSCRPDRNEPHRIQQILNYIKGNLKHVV

[3] = molecular target: T3, Polyamine deacetylase HDAC10 (Homo sapiens, UniProt Q969S8); experiment: Inhibition of human HDAC10 using RHKK(Ac) as substrate by fluorimetric analysis
T3 sequence (Q969S8 whole entry): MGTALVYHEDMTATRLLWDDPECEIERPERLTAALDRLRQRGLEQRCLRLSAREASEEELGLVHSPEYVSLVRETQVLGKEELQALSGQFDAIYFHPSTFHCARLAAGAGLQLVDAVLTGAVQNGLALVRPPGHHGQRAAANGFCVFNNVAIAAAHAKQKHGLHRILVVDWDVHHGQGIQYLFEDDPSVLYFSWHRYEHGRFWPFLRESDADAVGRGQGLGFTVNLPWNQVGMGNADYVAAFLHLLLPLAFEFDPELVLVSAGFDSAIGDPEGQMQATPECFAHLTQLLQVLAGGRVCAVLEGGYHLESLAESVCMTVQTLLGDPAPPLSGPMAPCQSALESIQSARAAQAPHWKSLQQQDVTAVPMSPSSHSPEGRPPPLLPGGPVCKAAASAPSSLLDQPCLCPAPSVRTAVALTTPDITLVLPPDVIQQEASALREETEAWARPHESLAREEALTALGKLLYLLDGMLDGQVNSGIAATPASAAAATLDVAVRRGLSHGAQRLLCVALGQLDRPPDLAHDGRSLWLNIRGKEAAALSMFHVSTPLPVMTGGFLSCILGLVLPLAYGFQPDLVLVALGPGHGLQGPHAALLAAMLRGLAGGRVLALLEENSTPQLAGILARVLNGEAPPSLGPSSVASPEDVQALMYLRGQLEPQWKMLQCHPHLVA

Histone deacetylase 11 = molecular target: T4, Histone deacetylase 11 (Homo sapiens, UniProt Q96DB2); experiment: Inhibition of human HDAC11 using RHKK(Ac) as substrate by fluorimetric analysis
T4 sequence (Q96DB2 whole entry): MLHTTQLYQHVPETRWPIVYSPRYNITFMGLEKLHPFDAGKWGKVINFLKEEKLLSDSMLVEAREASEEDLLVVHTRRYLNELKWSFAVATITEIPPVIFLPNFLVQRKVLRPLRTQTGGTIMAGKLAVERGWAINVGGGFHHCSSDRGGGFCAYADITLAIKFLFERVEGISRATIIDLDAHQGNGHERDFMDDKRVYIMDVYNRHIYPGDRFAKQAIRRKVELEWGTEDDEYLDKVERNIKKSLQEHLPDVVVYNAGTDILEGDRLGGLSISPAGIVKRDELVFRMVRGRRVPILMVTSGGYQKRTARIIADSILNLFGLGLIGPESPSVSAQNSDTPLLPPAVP

Histone deacetylase 1 = Histone deacetylase 1 (Homo sapiens, UniProt Q13547); experiment: Inhibition of human HDAC1 using RHKK(Ac) as substrate by fluorimetric analysis
[4] = system: Trypanosoma brucei rhodesiense; experiment: Antiprotozoan activity against Trypanosoma brucei rhodesiense STIB 900 trypomastigotes; assay type: functional, organism-based
Plasmodium falciparum [5] = experiment: Antiprotozoan activity against Plasmodium falciparum infected in mouse assessed as reduction in parasite growth at 50 mg/kg, ip QD for 4 days; assay type: functional; settings: 96 h, route intraperitoneal
Leishmania donovani [6] = experiment: Antiprotozoan activity against Leishmania donovani MHOM- ET-67/L82 amastigotes; assay type: functional, organism-based
Plasmodium falciparum [7] = experiment: Antiprotozoan activity against Plasmodium falciparum infected in mouse assessed as mouse survival at 50 mg/kg, ip QD for 4 days; assay type: functional; settings: route intraperitoneal
Leishmania donovani [8] = experiment: Antiprotozoan activity against Leishmania donovani MHOM- ET-67/L82 amastigotes at 1 uM; assay type: functional, organism-based
[9] = Leishmania donovani, MHOM- ET-67/L82, read-out: IC50

Chain of Histone deacetylase 2 (Q92769 whole entry): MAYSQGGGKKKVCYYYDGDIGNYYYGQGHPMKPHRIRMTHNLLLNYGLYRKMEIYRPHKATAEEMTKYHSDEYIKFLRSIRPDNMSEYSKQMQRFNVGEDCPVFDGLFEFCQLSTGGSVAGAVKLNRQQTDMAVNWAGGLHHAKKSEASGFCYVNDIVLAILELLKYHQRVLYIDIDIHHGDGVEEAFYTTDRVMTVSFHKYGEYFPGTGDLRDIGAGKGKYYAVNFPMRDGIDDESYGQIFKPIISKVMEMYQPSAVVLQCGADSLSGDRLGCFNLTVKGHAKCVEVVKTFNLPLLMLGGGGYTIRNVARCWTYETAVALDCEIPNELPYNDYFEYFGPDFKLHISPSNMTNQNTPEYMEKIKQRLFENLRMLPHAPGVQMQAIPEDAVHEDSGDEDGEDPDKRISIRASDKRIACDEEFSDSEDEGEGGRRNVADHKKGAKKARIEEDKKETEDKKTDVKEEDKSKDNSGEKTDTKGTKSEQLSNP
Chain of Histone deacetylase 3 (O15379 whole entry): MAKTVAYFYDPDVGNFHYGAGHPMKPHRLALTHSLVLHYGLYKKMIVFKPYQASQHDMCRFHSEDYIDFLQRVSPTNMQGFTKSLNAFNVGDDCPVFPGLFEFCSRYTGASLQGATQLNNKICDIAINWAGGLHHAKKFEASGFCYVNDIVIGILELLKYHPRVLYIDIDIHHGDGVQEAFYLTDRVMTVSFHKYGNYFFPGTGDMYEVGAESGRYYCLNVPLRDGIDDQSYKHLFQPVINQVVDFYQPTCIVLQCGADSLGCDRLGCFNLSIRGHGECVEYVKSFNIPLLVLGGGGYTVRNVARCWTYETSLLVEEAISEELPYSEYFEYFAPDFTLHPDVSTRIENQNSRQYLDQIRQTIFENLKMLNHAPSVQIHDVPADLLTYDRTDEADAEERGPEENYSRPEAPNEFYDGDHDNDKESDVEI
Chain of Histone deacetylase 1 (Q13547 whole entry): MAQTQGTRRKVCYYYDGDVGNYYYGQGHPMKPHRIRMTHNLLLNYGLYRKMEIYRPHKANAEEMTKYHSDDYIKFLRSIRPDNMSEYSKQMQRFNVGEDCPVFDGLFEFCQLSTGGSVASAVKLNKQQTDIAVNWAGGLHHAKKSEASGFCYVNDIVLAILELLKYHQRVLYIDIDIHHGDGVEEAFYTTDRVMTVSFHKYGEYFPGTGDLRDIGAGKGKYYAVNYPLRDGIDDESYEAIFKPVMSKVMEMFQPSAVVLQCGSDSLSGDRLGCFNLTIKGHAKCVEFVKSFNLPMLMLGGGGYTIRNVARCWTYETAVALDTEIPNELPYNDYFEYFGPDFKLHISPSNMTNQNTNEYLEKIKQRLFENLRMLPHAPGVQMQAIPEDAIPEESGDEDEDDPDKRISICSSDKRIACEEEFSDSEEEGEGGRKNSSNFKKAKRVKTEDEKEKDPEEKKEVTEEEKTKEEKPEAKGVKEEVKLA

Row | SMILES | IC50 (Trypanosoma cruzi) [µM] | IC50 (L6) [µM] | IC50 (Plasmodium falciparum [1]) [µM] | IC50 (Giardia intestinalis) [µM] | IC50 [4] [µM] | inhibition in vivo at 50 mg/kg (Plasmodium falciparum [5]) [%] | further results
1 | O=C(Cn1ccnc1[N+](=O)[O-])NCc1ccccc1 [BENZNIDAZOLE] | 2.13 | – | – | – | – | – | –
2 | O=C(CCCCC[C@H](NC(=O)[C@@H]1CC(=O)N1)C(=O)Nc1ccccc1)NO | 33 | 7.46 | 0.023 | 12.8 | 6.04 | – | IC50 [2]: 0.006 µM; IC50 (NCI-H460): 5.4 µM; IC50 (Histone deacetylase 2): 0.143 µM; IC50 (Histone deacetylase 3): 0.088 µM; IC50 (Histone deacetylase 8): 0.137 µM; IC50 [3]: 0.125 µM; IC50 (Histone deacetylase 11): 0.037 µM; IC50 (Histone deacetylase 1): 0.059 µM
3 | C[C@H]1[C@@H](O)O[C@@H]2O[C@@]3(C)CC[C@H]4[C@H](C)CC[C@@H]1[C@@]24OO3 [ARTENIMOL] | – | – | – | – | – | 99.8 | –
4 | O=C1CC[C@H](C(=O)N[C@@H](CCCCCS)C(=O)Nc2ccccc2)N1 | 25.8 | 5.25 | 9.66 | 12.3 | 3.23 | – | IC50 [2]: 0.003 µM; IC50 (Leishmania donovani [6]; [9]): > 10 µM; IC50 (Histone deacetylase 2): 0.078 µM; IC50 (Histone deacetylase 3): 0.005 µM; IC50 (Histone deacetylase 8): 0.281 µM; IC50 [3]: 0.011 µM; IC50 (Histone deacetylase 11): 0.014 µM; IC50 (Histone deacetylase 1): 0.013 µM
5 | O=C(CCCCC[C@H](NC(=O)[C@@H]1CCC(=O)N1)C(=O)Nc1ccccc1)NO ([pGlu]-[Asu](NHOH)-NHPh) | 48.4 | 75.1 | 0.019 | 10.7 | 19.9 | 87.5 | IC50 [2]: 0.003 µM; IC50 (NCI-H460): 2.2 µM; IC50 (Histone deacetylase 2): 0.089 µM; IC50 (Histone deacetylase 3): 0.062 µM; IC50 (Histone deacetylase 8): 0.093 µM; IC50 [3]: 0.113 µM; IC50 (Histone deacetylase 11): 0.013 µM; IC50 (Histone deacetylase 1): 0.034 µM
6 | O=C1CC[C@H](C(=O)N[C@@H](CCCCCS)C(=O)Nc2cccc(C(F)(F)F)c2)N1 | 19.1 | 2.67 | 3.26 | 64.8 | 4.75 | – | IC50 (Leishmania donovani [6]; [9]): > 3 µM
7 | CCCCCCCCCCCCCCCCOP(=O)([O-])OCC[N+](C)(C)C [MILTEFOSINE] | – | – | – | – | – | – | IC50 (Leishmania donovani [6]; [9]): 3.15 µM
8 | Cc1cccc(NC(=O)[C@H](CCCCCC(=O)NO)NC(=O)[C@H]2CCC(=O)N2)c1 | 0.849 | 1.23 | 0.006 | 4.64 | 5.51 | 33.8 | IC50 (Histone deacetylase 11): 0.015 µM
9 | C[C@@H]1CC[C@H]2[C@@H](C)C(=O)O[C@@H]3O[C@@]4(C)CC[C@@H]1[C@]32OO4 [ARTEMISININ] | – | – | – | – | – | 99.9 | Survival (Plasmodium falciparum [7]): >30 days
10 | O=C(CCCCCCC(=O)Nc1ccccc1)NO [VORINOSTAT] | 10.1 | – | 0.025 | – | – | – | Activity (Leishmania donovani [8]): inactive
11 | CC(=O)SCCCCC[C@H](NC(=O)[C@H]1CCC(=O)N1)C(=O)Nc1ccccc1 | 2.1 | 0.189 | 6.57 | 8.11 | 2.51 | – | IC50 (Leishmania donovani [6]): Not Active; IC50 (NCI-H460): 0.066 µM; Activity (Leishmania donovani [8]): inactive
12 | O=C(CCCCC[C@H](NC(=O)[C@H]1CCC(=O)N1)C(=O)Nc1cccc(C(F)(F)F)c1)NO | 0.972 | 0.638 | 0.003 | 4.27 | 4.16 | 63.2 | –
13 | CC(=O)SCCCCC[C@H](NC(=O)[C@H]1CCC(=O)N1)C(=O)Nc1cccc(C(F)(F)F)c1 | 3.98 | 0.091 | 3.24 | 40.9 | 2.38 | – | IC50 (Leishmania donovani [6]): Not Active; Activity (Leishmania donovani [8]): inactive
14 | COc1cc([C@@H]2c3cc4c(cc3[C@H](O)[C@H]3COC(=O)[C@H]23)OCO4)cc(OC)c1OC [PODOFILOX] | – | 0.019 | – | – | – | – | –
15 | Cc1ncc([N+](=O)[O-])n1CCO [METRONIDAZOLE] | – | – | – | 0.58 | – | – | –
